In PubChem BioAssay (NCI):
Several values for one entry are separate records, joined by “and”; a condition that tells them apart may be missing. Equal values may be shown once.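 96-well plates; 48 h exposure; 5 concentrations. Endpoints by linear interpolation between flanking doses. Not reached: highest tested concentration assigned. GI50 marks 50% less growth. Definition used: TGI = concentration required for complete inhibition of growth.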

Columns and labels:
Experiment in all cases: NCI-60 cell line screen, 48 h
[1] = tested on: OVCAR-5 ovarian
[2] = tested on: HOP-92 NSCLC
[3] = tested on: NCI-H23 lung
[4] = tested on: LOX IMVI melanoma
[5] = tested on: T-47D breast
[6] = tested on: OVCAR-8 ovarian
[7] = tested on: U251 CNS
[8] = tested on: EKVX NSCLC
[9] = tested on: OVCAR-4 ovarian
[10] = tested on: SK-OV-3 ovarian
[11] = tested on: UO-31 renal
[12] = tested on: SK-MEL-5 melanoma
[13] = tested on: CAKI-1 renal
[14] = tested on: SW-620 colon
[15] = tested on: PC-3 prostate
[16] = tested on: DU-145 prostate
[17] = tested on: MOLT-4 leukemia
[18] = tested on: RPMI-8226 leukemia
[19] = tested on: NCI/ADR-RES ovarian
[20] = tested on: NCI-H522 lung
[21] = tested on: IGROV1 ovarian
[22] = tested on: HCT-116 colon
[23] = tested on: SK-MEL-28 melanoma
[24] = tested on: SF-295 CNS
[25] = tested on: K-562 leukemia
[26] = tested on: SNB-75 CNS
[27] = tested on: NCI-H226 lung
[28] = tested on: KM12 colon
[29] = tested on: A498 renal
[30] = tested on: SF-539 CNS
[31] = tested on: HS 578T breast
[32] = tested on: UACC-257 melanoma
[33] = tested on: MDA-MB-435
[34] = tested on: CCRF-CEM leukemia
[35] = tested on: OVCAR-3 ovarian
[36] = tested on: SNB-19 CNS
[37] = tested on: SN12C renal
[38] = tested on: ACHN renal
[39] = tested on: SF-268 CNS
[40] = tested on: SK-MEL-2 melanoma
[41] = tested on: SR leukemia
[42] = tested on: COLO 205 colon
[43] = tested on: NCI-H460 lung
[44] = tested on: HT29 colon
[45] = tested on: HCC-2998 colon
[46] = tested on: RXF 393 renal
[47] = tested on: UACC-62 melanoma
[48] = tested on: BT-549 breast
[49] = tested on: 786-0 renal
[50] = tested on: MALME-3M melanoma
[51] = tested on: MCF7 breast
[52] = tested on: TK-10 renal
[53] = tested on: A549 NSCLC
[54] = tested on: HL-60(TB) leukemia
[55] = tested on: HOP-62 NSCLC
[56] = tested on: M14 melanoma
[57] = tested on: HCT-15 colon
[58] = tested on: MDA-MB-231 breast

## CCN1CCN(CCNc2nccc(-c3c(-c4cccc(O)c4)nc4sccn34)n2)S1(=O)=O
[1]
  GI50: 21.7 µM and 65 µM
  TGI: 32.5 µM and > 100 µM
[2]
  GI50: 6.2 µM and 0.671 µM
  TGI: 32.5 µM and 69.9 µM
[3]
  GI50: 12.4 µM
  TGI: 32.5 µM and 51.9 µM
[4]
  GI50: 4.96 µM and 2.53 µM
  TGI: 25.7 µM and 23.5 µM
[5]
  GI50: 22.1 µM and 11 µM
  TGI: 32.5 µM and 53 µM
[6]
  GI50: 16.1 µM and 10.9 µM
  TGI: 32.5 µM and > 100 µM
[7]
  GI50: 30.8 µM and 11.1 µM
  TGI: 32.5 µM and > 100 µM
[8]
  GI50: > 32.5 µM and 34.6 µM
  TGI: > 100 µM
[9]
  GI50: 19.5 µM and 12.1 µM
  TGI: 32.5 µM and > 100 µM
[10]
  GI50: 7.93 µM and 3.95 µM
  TGI: 32.5 µM and 22.8 µM
[11]
  GI50: 15.1 µM and 5.75 µM
  TGI: 32.5 µM and 74 µM
[12]
  GI50: 5.28 µM and 6.28 µM
  TGI: 23.1 µM and 20.7 µM
[13]
  GI50: 7.33 µM and 3 µM
  TGI: 28.5 µM and > 100 µM
[14]
  GI50: 21.1 µM and 15.7 µM
  TGI: 32.5 µM and 92.5 µM
[15]
  GI50: 17.6 µM and 20.1 µM
  TGI: 32.5 µM and > 100 µM
[16]
  GI50: 16.1 µM and 8.51 µM
  TGI: 32.5 µM and > 100 µM
[17]
  GI50: 19.2 µM and 21.7 µM
  TGI: 32.5 µM and 57.6 µM
[18]
  GI50: 6.37 µM and 16.3 µM
  TGI: 20.7 µM and 40.8 µM
[19]
  GI50: 23.3 µM and 26.5 µM
  TGI: 32.5 µM and 86.1 µM
[20]
  GI50: 7.65 µM and 4.27 µM
  TGI: 29.8 µM and 31.2 µM
[21]
  GI50: 11.9 µM and 5.5 µM
  TGI: 32.5 µM and > 100 µM
[22]
  GI50: 9.72 µM and 3.63 µM
  TGI: 32.5 µM and 55.3 µM
[23]
  GI50: 0.181 µM and 0.13 µM
  TGI: 32.5 µM and > 100 µM
[24]
  GI50: 14.2 µM and 16.4 µM
  TGI: 32.5 µM and 48.8 µM
[25]
  GI50: 11.9 µM and 11.4 µM
  TGI: 32.5 µM and > 100 µM
[26]
  GI50: 12.6 µM and 6.84 µM
  TGI: 32.5 µM and > 100 µM
[27]
  GI50: > 32.5 µM and 26.4 µM
  TGI: > 32.5 µM and 84.3 µM
[28]
  GI50: 11 µM and 11.2 µM
  TGI: 32.5 µM and > 100 µM
[29]
  GI50: 16.6 µM and 3.97 µM
  TGI: 32.5 µM and 25.6 µM
[30]
  GI50: 28.6 µM and 21.3 µM
  TGI: 32.5 µM and 78.5 µM
[31]
  GI50: 12.9 µM and 10 µM
  TGI: 30.2 µM and > 100 µM
[32]
  GI50: 0.31 µM and 0.215 µM
  TGI: 32.5 µM and 9.03 µM
[33]
  GI50: 0.313 µM and 0.376 µM
  TGI: 14.5 µM and 5.79 µM
[34]
  GI50: 8.83 µM and 5.52 µM
  TGI: 32.5 µM and 46.1 µM
[35]
  GI50: 20.1 µM and 21.4 µM
  TGI: 32.5 µM and > 100 µM
[36]
  GI50: > 32.5 µM and 71.5 µM
  TGI: > 100 µM
[37]
  GI50: 15.2 µM and 7.73 µM
  TGI: 32.5 µM and > 100 µM
[38]
  GI50: 6.72 µM and 4.13 µM
  TGI: 32 µM and > 100 µM
[39]
  GI50: 23.4 µM and 19.9 µM
  TGI: 32.5 µM and > 100 µM
[40]
  GI50: 2.05 µM and 2.6 µM
  TGI: 10.4 µM and 7.27 µM
[41]
  GI50: 7.65 µM and 5.96 µM
  TGI: 32.5 µM and 64.3 µM
[42]
  GI50: 0.296 µM and 0.336 µM
  TGI: 32.5 µM and 15.9 µM
[43]
  GI50: 11.8 µM and 5.86 µM
  TGI: 32.5 µM and 78.3 µM
[44]
  GI50: 4.53 µM and 2.2 µM
  TGI: 32.5 µM and 31.7 µM
[45]
  GI50: 32.1 µM and 29.4 µM
  TGI: 32.5 µM and > 100 µM
[46]
  GI50: 4.02 µM and 5.06 µM
  TGI: 22.7 µM and 36.3 µM
[47]
  GI50: 0.105 µM and 0.0766 µM
  TGI: 6.11 µM and 4.62 µM
[48]
  GI50: 20.4 µM and 6.31 µM
  TGI: 32.5 µM and 76.6 µM
[49]
  GI50: 22.1 µM and 7.86 µM
  TGI: 32.5 µM and > 100 µM
[50]
  GI50: 0.0775 µM and 0.118 µM
  TGI: 0.42 µM and 0.785 µM
[51]
  GI50: 26 µM and 19.5 µM
  TGI: 32.5 µM and > 100 µM
[52]
  GI50: 19.4 µM and 9.68 µM
  TGI: 32.5 µM and > 100 µM
[53]
  GI50: 15.4 µM and 9.27 µM
  TGI: 32.5 µM and > 100 µM
[54]
  GI50: 11.8 µM
  TGI: 32.5 µM
[55]
  GI50: > 32.5 µM and 26.4 µM
  TGI: > 100 µM
[56]
  GI50: 0.168 µM and 0.142 µM
  TGI: 19.8 µM and 10.8 µM
[57]
  GI50: 11.7 µM and 8.63 µM
  TGI: 32.5 µM and > 100 µM
[58]
  GI50: 10.5 µM and 7.3 µM
  TGI: 32.5 µM and > 100 µM
